Values of other authors as cited in EP2508186A1, “Phenoxazinones or phenothiazones as inhibitors of amyloid formation” (Max-Delbrück-Centrum für Molekulare Medizin, priority 2011, dated 2012).

Molecular target: T1, Aβ42 (Homo sapiens, UniProt P05067)
T1 construct: the amyloid-β 1-42 (Aβ42) peptide
Details: previous biochemical investigations; cited from earlier work

T1 sequence (P05067 672-713 limits assumed): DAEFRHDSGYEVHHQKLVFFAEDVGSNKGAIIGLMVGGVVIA

CN(C)c1ccc2nc3ccc(=[N+](C)C)cc-3sc2c1 [methylene blue]
effect on Aβ42 fibrillogenesis and A11-reactive oligomers: promotes Aβ42 fibrillogenesis and thereby reduces the amount of A11-reactive, potentially toxic amyloid oligomers
